Experimental data from patent US20240269298A1, “PHOSPHONYL DERIVATIVE, AND COMPOSITION AND PHARMACEUTICAL APPLICATION THEREOF” (XIZANG HAISCO PHARMACEUTICAL CO., LTD., priority 2021, published 2024).
Where two headings read alike, the source gives them in different places.

Columns and labels:
A431 (EGFR-WT) cells = test: Inhibitory activity on proliferation of A431 (EGFR-WT) cells (CTG, 72 h); type: cell-based; conditions: Homo sapiens, A-431
Protocol: NCI-H1975 (EGFR-L858R-T790M) and A431 (EGFR-WT) cells were purchased from ATCC and cultured in an incubator at 37° C. with 5% CO2, and the culture mediums were RPMI1640+10% FBS and DMEM+10% FBS, respectively. On the first day, NCI-H1975 (EGFR-L858R-T790M) and A431 (EGFR-WT) cells in the logarithmic phase were collected, and viable cells were counted using an automatic cell analyzer (countstar). The cell suspensions were adjusted with the culture mediums and plated on a 96-well cell culture plate at 1000 cells/well for NCI-H1975 (EGFR-L858R-T790M) cells and at 3000 cells/well for A431 cells. The next day, the culture mediums were aspirated, and 90 μL of fresh culture mediums and 10 μL of the compounds at different concentrations were added to each well, wherein the final concentration of DMSO in each well was 0.1%. The plate was cultured in the incubator at 37° C. with 5% CO2 for 72 hours. After 72 hours of drug treatment, 50 μL of CTG solution (promega, G7572), which was already pre-melted and equilibrated to room temperature, was added to each well, and the mixtures were uniformly mixed for 2 min using a microplate shaker. The plate was placed at room temperature for 10 min, and then […] signal values were measured using a microplate reader (PHERAstar FSX).
Surviving cells % was calculated based on Vsample/Vvehicle control×100%, wherein Vsample was the readout of the drug-treated group, and Vvehicle control was the average value of the vehicle control group. Using the origin 9.2 software and nonlinear regression model, S-shaped dose-survival curves were plotted, and IC50 values were calculated.

[1] = system: NCI-H1975 (EGFR-L858R-T790M) cells; test: Inhibitory activity on proliferation of NCI-H1975 (EGFR-L858R-T790M) cells (CTG, 72 h); type: cell-based; conditions: Homo sapiens
Summary of the method: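 IC50 values come from S-shaped dose-survival fits of CTG signal expressed as % of vehicle. Compound exposure lasted 72 h at 37 °C with 0.1% DMSO; seeding was 3000 A431 cells/well in DMEM+10% FBS and 1000 NCI-H1975 cells/well in RPMI1640+10% FBS.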

[2] = read-out: IC50 (value in brackets)

SMILES	IC50 (A431 (EGFR-WT) cells) [nM]	IC50 ([1]; read-out: IC50 (class symbol)) [nM]	IC50 [1, 2] [nM]
COc1cc(N2CCN(c3ccc4c(c3)C(=O)N(C3CCC(=O)NC3=O)C4=O)CC2)c(-c2cnn(C)c2)cc1Nc1ncc(Br)c(Nc2ccc(C3CC3)cc2P(C)(C)=O)n1 (stereo not drawn) [Compound 166, 5-(4-(4-((5-bromo-4-((4-cyclopropyl-2-(dimethylphosphoryl)phenyl)amino)pyrimidin-2-yl)amino)-5-methoxy-2-(1-methyl-1H-pyrazol-4-yl)phenyl)piperazin-1-yl)-2-(2,6-dioxopiperidin-3-yl)isoindoline-1,3-dione]	≥ 10000	100 to 500	115
COc1cc(N2CCC(CN3CCN(c4ccc5c(c4)C(=O)N([C@H]4CCC(=O)NC4=O)C5=O)CC3)CC2)c(-c2cnn(C)c2)cc1Nc1ncc(Br)c(Nc2ccc(C3CC3)cc2P(C)(C)=O)n1 [Compound 170]	≥ 10000	< 100	47
COc1cc(N2CCC(N3CCN(CC4CCN(c5ccc6c(c5)C(=O)N(C5CCC(=O)NC5=O)C6=O)CC4)CC3)CC2)c(-c2cnn(C)c2)cc1Nc1ncc(Cl)c(Nc2ccc3nccnc3c2P(C)(C)=O)n1 (stereo not drawn) [Compound 4, 5-(4-((4-(1-(4-((5-chloro-4-((5-(dimethylphosphoryl)quinoxalin-6-yl)amino)pyrimidin-2-yl)amino)-5-methoxy-2-(1-methyl-1H-pyrazol-4-yl)phenyl)piperidin-4-yl)piperazin-1-yl)methyl)piperidin-1-yl)-2-(2,6-dioxopiperidin-3-yl)isoindoline-1,3-dione]	≥ 10000	< 100	21
COc1cc(N2CCC(N3CCN(CC4(F)CCN(c5ccc6c(c5)C(=O)N(C5CCC(=O)NC5=O)C6=O)CC4)CC3)CC2)c(-c2cnn(C)c2)cc1Nc1ncc(Br)c(Nc2ccc(-c3ccccc3)cc2P(C)(C)=O)n1 (stereo not drawn) [Trifluoroacetate of compound 86, 5-(4-((4-(1-(4-((5-bromo-4-((3-(dimethylphosphoryl)-[1,1′-biphenyl]-4-yl)amino)pyrimidin-2-yl)amino)-5-methoxy-2-(1-methyl-1H-pyrazol-4-yl)phenyl)piperidin-4-yl)piperazin-1-yl)methyl)-4-fluoropiperidin-1-yl)-2-(2,6-dioxopiperidin-3-yl)isoindoline-1,3-dione]	≥ 10000	< 100	77
COc1cc(N2CCC(C3CCN(C4CC5(CCN(c6ccc7c(c6)C(=O)N(C6CCC(=O)NC6=O)C7=O)CC5)C4)CC3)CC2)c(-c2cnn(C)c2)cc1Nc1ncc(Cl)c(Nc2ccc3nccnc3c2P(C)(C)=O)n1 (stereo not drawn) [Trifluoroacetate of compound 14, 5-(2-(1′-(4-((5-chloro-4-((5-(dimethylphosphoryl)quinoxalin-6-yl)amino)pyrimidin-2-yl)amino)-5-methoxy-2-(1-methyl-1H-pyrazol-4-yl)phenyl)-[4,4′-bipiperidin]-1-yl)-7-azaspiro[3.5]nonan-7-yl)-2-(2,6-dioxopiperidin-3-yl)isoindoline-1,3-dione]	≥ 10000	< 100	49
COc1cc(N2CCC(N3CCN(CC4CCN(c5ccc6c(c5)C(=O)N(C5CCC(=O)NC5=O)C6=O)C4)CC3)CC2)c(-c2cnn(C)c2)cc1Nc1ncc(Br)c(Nc2ccc3nccnc3c2P(C)(C)=O)n1 (stereo not drawn) [Compound 30, 5-(3-((4-(1-(4-((5-bromo-4-((5-(dimethylphosphoryl)quinoxalin-6-yl)amino)pyrimidin-2-yl)amino)-5-methoxy-2-(1-methyl-1H-pyrazol-4-yl)phenyl)piperidin-4-yl)piperazin-1-yl)methyl)pyrrolidin-1l-yl)-2-(2,6-dioxopiperidin-3-yl)isoindoline-1,3-dione]	≥ 10000	< 100	12

Results, then the molecule that gave them:

IC50 (A431 (EGFR-WT) cells) [nM]	IC50 ([1]; read-out: IC50 (class symbol)) [nM]	IC50 [1, 2] [nM]	SMILES
≥ 10000	< 100	43	COc1cc(N2CCC(CN3CCCC4(CCN(c5ccc6c(c5)C(=O)N(C5CCC(=O)NC5=O)C6=O)CC4)C3)CC2)c(-c2cnn(C)c2)cc1Nc1ncc(Cl)c(Nc2ccc3nccnc3c2P(C)(C)=O)n1 (stereo not drawn) [Compound 1, 5-(2-((1-(4-((5-chloro-4-((5-(dimethylphosphoryl)quinoxalin-6-yl)amino)pyrimidin-2-yl)amino)-5-methoxy-2-(1-methyl-1H-pyrazol-4-yl)phenyl)piperidin-4-yl)methyl)-2,9-diazaspiro[5.5]undecan-9-yl)-2-(2,6-dioxopiperidin-3-yl)isoindoline-1,3-dione]
≥ 10000	< 100	23	COc1cc(N2CCN(CC3CCN(c4ccc5c(c4)C(=O)N(C4CCC(=O)NC4=O)C5=O)CC3)CC2)c(-c2cnn(C)c2)cc1Nc1ncc(Br)c(Nc2ccc(C3CC3)cc2P(C)(C)=O)n1 (stereo not drawn) [Compound 125, 5-(4-((4-(4-((5-bromo-4-((4-cyclopropyl-2-(dimethylphosphoryl)phenyl)amino)pyrimidin-2-yl)amino)-5-methoxy-2-(1-methyl-1H-pyrazol-4-yl)phenyl)piperazin-1-yl)methyl)piperidin-1-yl)-2-(2,6-dioxopiperidin-3-yl)isoindoline-1,3-dione]
≥ 10000	< 100	29	COc1cc(N2CCN(C[C@H]3CCN(c4ccc5c(c4)C(=O)N(C4CCC(=O)NC4=O)C5=O)C3)CC2)c(-c2cnn(C)c2)cc1Nc1ncc(Cl)c(Nc2ccc(C3CC3)cc2P(C)(C)=O)n1 (stereo partly drawn) [Compound 119, 5-((R)-3-((4-(4-((5-chloro-4-((4-cyclopropyl-2-(dimethylphosphoryl)phenyl)amino)pyrimidin-2-yl)amino)-5-methoxy-2-(1-methyl-1H-pyrazol-4-yl)phenyl)piperazin-1-yl)methyl)pyrrolidin-1-yl)-2-(2,6-dioxopiperidin-3-yl)isoindoline-1,3-dione]
≥ 10000	100 to 500	209	CCn1cc(-c2cc(Nc3ncc(Br)c(Nc4ccc(-c5ccccc5)cc4P(C)(C)=O)n3)c(OC)cc2N2CCC(CN3CCN(c4ccc5c(c4)C(=O)N(C4CCC(=O)NC4=O)C5=O)CC3)CC2)cn1 (stereo not drawn) [Compound 111, 5-(4-((1-(4-((5-bromo-4-((3-(dimethylphosphoryl)-[1,1′-biphenyl]-4-yl)amino)pyrimidin-2-yl)amino)-2-(1-ethyl-1H-pyrazol-4-yl)-5-methoxyphenyl)piperidin-4-yl)methyl)piperazin-1-yl)-2-(2,6-dioxopiperidin-3-yl)isoindoline-1,3-dione]
≥ 10000	< 100	59	COc1cc(N2CCN(C3CCN(CC4CCN(c5ccc6c(c5)C(=O)N(C5CCC(=O)NC5=O)C6=O)CC4)CC3)CC2)c(-c2cnn(C)c2)cc1Nc1ncc(Br)c(Nc2ccc(-c3ccccc3)cc2P(C)(C)=O)n1 (stereo not drawn) [Compound 42, 5-(4-((4-(4-(4-((5-bromo-4-((3-(dimethylphosphoryl)-[1,1′-biphenyl]-4-yl)amino)pyrimidin-2-yl)amino)-5-methoxy-2-(1-methyl-1H-pyrazol-4-yl)phenyl)piperazin-1-yl)piperidin-1-yl)methyl)piperidin-1-yl)-2-(2,6-dioxopiperidin-3-yl)isoindoline-1,3-dione]
≥ 10000	100 to 500	109	COc1cc(N2CCC3(CCN(c4ccc5c(c4)C(=O)N(C4CCC(=O)NC4=O)C5=O)CC3)CC2)c(-c2cnn(C)c2)cc1Nc1ncc(Br)c(Nc2ccccc2P(C)(C)=O)n1 (stereo not drawn) [Compound 164, 5-(9-(4-((5-bromo-4-((2-(dimethylphosphoryl)phenyl)amino)pyrimidin-2-yl)amino)-5-methoxy-2-(1-methyl-1H-pyrazol-4-yl)phenyl)-3,9-diazaspiro[5.5]undecan-3-yl)-2-(2,6-dioxopiperidin-3-yl)isoindoline-1,3-dione]
≥ 10000	100 to 500	152	COc1cc(N2CCC(CN3CCN(c4cc5c(cc4F)C(=O)N(C4CCC(=O)NC4=O)C5=O)CC3)CC2)c(-c2cnn(C)c2)cc1Nc1ncc(Cl)c(Nc2ccc(C3CC3)cc2P(C)(C)=O)n1 (stereo not drawn) [Compound 160, 5-(4-((1-(4-((5-chloro-4-((4-cyclopropyl-2-(dimethylphosphoryl)phenyl)amino)pyrimidin-2-yl)amino)-5-methoxy-2-(1-methyl-1H-pyrazol-4-yl)phenyl)piperidin-4-yl)methyl)piperazin-1-yl)-2-(2,6-dioxopiperidin-3-yl)-6-fluoroisoindoline-1,3-dione]
≥ 10000	< 100	58	COc1cc(N2CCC(CN3CCN(c4ccc5c(c4)CN(C4CCC(=O)NC4=O)C5=O)CC3)CC2)c(-c2cnn(C)c2)cc1Nc1ncc(Cl)c(Nc2ccc(-c3ccccc3)cc2P(C)(C)=O)n1 (stereo not drawn) [Compound 105, 3-(5-(4-((1-(4-((5-chloro-4-((3-(dimethylphosphoryl)-[1,1′-biphenyl]-4-yl)amino)pyrimidin-2-yl)amino)-5-methoxy-2-(1-methyl-1H-pyrazol-4-yl)phenyl)piperidin-4-yl)methyl)piperazin-1-yl)-1-oxoisoindolin-2-yl)piperidine-2,6-dione]
